Calls of active or inactive are those of the source. The rule behind the calls is not given here.
Key:
Plasmodium falciparum [1] = experiment: Antimalarial activity against chloroquine/pyrimethamine-resistant Plasmodium falciparum W2 trophozoites assessed as reduction in [3H]-hypoxanthine incorporation preincubated for 96 hrs followed by [3H]-hypoxanthine addition at 48 hrs post start of experiment; type: functional
Plasmodium falciparum [2] = experiment: Antimalarial activity against Plasmodium falciparum D6 trophozoites assessed as reduction in [3H]-hypoxanthine incorporation preincubated for 96 hrs followed by [3H]-hypoxanthine addition at 48 hrs post start of experiment; type: functional
[3] = Cytotoxicity against human A549 cells after 4 days by coulter counting method; type: cell-based
[4] = Stability of the compound in pH 7 solution; type: physicochemical; details: buffer
[5] = biological target: T1, Hypoxanthine-guanine phosphoribosyltransferase (Homo sapiens, UniProt P00492); experiment: Inhibition of N-terminal hexa-histidine-tagged human HGPRT using PRib-PP as substrate in presence of guanine by Hanes plot analysis
T1 sequence (P00492 whole entry): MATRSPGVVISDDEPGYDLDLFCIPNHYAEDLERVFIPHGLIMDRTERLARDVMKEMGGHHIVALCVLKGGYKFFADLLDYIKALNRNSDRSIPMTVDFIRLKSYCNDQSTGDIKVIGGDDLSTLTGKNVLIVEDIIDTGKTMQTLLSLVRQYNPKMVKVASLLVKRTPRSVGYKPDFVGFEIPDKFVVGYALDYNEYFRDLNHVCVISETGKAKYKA

Plasmodium vivax [6] = experiment: Inhibition of N-terminal hexa-histidine-tagged Plasmodium vivax HGPRT at 31 uM using PRib-PP as substrate in presence of guanine by spectrophotometric method
Plasmodium falciparum [7] = experiment: Inhibition of Plasmodium falciparum HGXPRT at 31 uM using PRib-PP as substrate in presence of guanine by spectrophotometric method
Plasmodium vivax [8] = experiment: Inhibition of N-terminal hexa-histidine-tagged Plasmodium vivax HGPRT at 29 uM using PRib-PP as substrate in presence of guanine by spectrophotometric method
Plasmodium falciparum [9] = experiment: Inhibition of Plasmodium falciparum HGXPRT at 29 uM using PRib-PP as substrate in presence of guanine by spectrophotometric method
[10] = biological target: T2, Hypoxanthine-guanine phosphoribosyltransferase (Homo sapiens) (UniProt P00492); experiment: Inhibition of N-terminal hexa-histidine-tagged human HGPRT at 42 uM using PRib-PP as substrate in presence of guanine by spectrophotometric analysis
T2 sequence (whole entry): T1 sequence (P00492 whole entry)

Plasmodium falciparum [11] = experiment: Inhibition of Plasmodium falciparum HGXPRT at 42 uM using PRib-PP as substrate in presence of guanine by spectrophotometric method
Plasmodium vivax [12] = experiment: Inhibition of N-terminal hexa-histidine-tagged Plasmodium vivax HGPRT at 42 uM using PRib-PP as substrate in presence of guanine by spectrophotometric method
[13] = Inhibition of N-terminal hexa-histidine-tagged Plasmodium vivax HGPRT using PRib-PP as substrate in presence of guanine by Hanes plot analysis
Plasmodium falciparum [14] = experiment: Inhibition of Plasmodium falciparum HGXPRT at 46 uM using PRib-PP as substrate in presence of guanine by spectrophotometric method
[15] = Inhibition of Plasmodium falciparum HGXPRT using PRib-PP as substrate in presence of guanine by Hanes plot analysis
Plasmodium falciparum [16] = experiment: Inhibition of Plasmodium falciparum HGXPRT at 32 uM using PRib-PP as substrate in presence of guanine by spectrophotometric method
Plasmodium falciparum [17] = experiment: Inhibition of Plasmodium falciparum HGXPRT at 35 uM using PRib-PP as substrate in presence of guanine by spectrophotometric method
Plasmodium vivax [18] = experiment: Inhibition of N-terminal hexa-histidine-tagged Plasmodium vivax HGPRT at 35 uM using PRib-PP as substrate in presence of guanine by spectrophotometric method
[19] = biological target: T2, Hypoxanthine-guanine phosphoribosyltransferase (Homo sapiens); experiment: Inhibition of N-terminal hexa-histidine-tagged human HGPRT at 35 uM using PRib-PP as substrate in presence of guanine by spectrophotometric analysis

Row | SMILES | Ki [5] [µM] | IC50 (Plasmodium falciparum [1]) [µM] | IC50 (Plasmodium falciparum [2]) [µM] | CC50 at 96 h [3] [µM] | Stability [4] | Ki [13] [µM] | further results
1 | CCOC(=O)[C@H](Cc1ccccc1)NP(=O)(CCOCC(COCCP(=O)(N[C@@H](Cc1ccccc1)C(=O)OCC)N[C@@H](Cc1ccccc1)C(=O)OCC)n1cnc2c(=O)[nH]cnc21)N[C@@H](Cc1ccccc1)C(=O)OCC | – | 1.7 | 1.5 | > 300 | Stable | – | –
2 | O=c1[nH]cnc2c1ccn2CC(COCCP(=O)(O)O)COCCP(=O)(O)O | 17 | – | – | – | – | – | inhibition (Plasmodium vivax [6]): inactive; inhibition (Plasmodium falciparum [7]): inactive
3 | CCOC(=O)[C@H](Cc1ccccc1)NP(=O)(CCOCC(COCCP(=O)(N[C@@H](Cc1ccccc1)C(=O)OCC)N[C@@H](Cc1ccccc1)C(=O)OCC)Cn1cnc2c(=O)[nH]cnc21)N[C@@H](Cc1ccccc1)C(=O)OCC | – | 4.6 | 1.7 | 66 | Stable | – | –
4 | O=c1[nH]cnc2c1ccn2C(COCCP(=O)(O)O)COCCP(=O)(O)O | – | – | – | – | – | – | inhibition [10]: inactive; inhibition (Plasmodium falciparum [11]): inactive; inhibition (Plasmodium vivax [12]): inactive
5 | CCOC(=O)[C@H](Cc1ccccc1)NP(=O)(CCOCC(COCCP(=O)(N[C@@H](Cc1ccccc1)C(=O)OCC)N[C@@H](Cc1ccccc1)C(=O)OCC)n1cnc2c(=O)[nH]c(N)nc21)N[C@@H](Cc1ccccc1)C(=O)OCC | – | 9.4 | 10 | > 300 | Stable | – | –
6 | CCOC(=O)[C@H](Cc1ccccc1)NP(=O)(CCOCC(COCCP(=O)(N[C@@H](Cc1ccccc1)C(=O)OCC)N[C@@H](Cc1ccccc1)C(=O)OCC)Cn1ccc2c(=O)[nH]cnc21)N[C@@H](Cc1ccccc1)C(=O)OCC | – | – | – | 23 | Stable | – | –
7 | CCOC(=O)[C@H](Cc1ccccc1)NP(=O)(CCOCC(COCCP(=O)(N[C@@H](Cc1ccccc1)C(=O)OCC)N[C@@H](Cc1ccccc1)C(=O)OCC)n1c(Br)nc2c(=O)[nH]cnc21)N[C@@H](Cc1ccccc1)C(=O)OCC | – | – | – | 278 | – | – | –
8 | O=c1[nH]cnc2c1ncn2CC(COCCP(=O)(O)O)COCCP(=O)(O)O | 1.5 | – | – | – | – | 6 | inhibition (Plasmodium falciparum [14]): inactive
9 | CCOC(=O)[C@H](Cc1ccccc1)NP(=O)(CCOCC(COCCP(=O)(N[C@@H](Cc1ccccc1)C(=O)OCC)N[C@@H](Cc1ccccc1)C(=O)OCC)n1ccc2c(=O)[nH]c(N)nc21)N[C@@H](Cc1ccccc1)C(=O)OCC | – | 1.1 | 0.8 | > 300 | Stable | – | –
10 | CCOC(=O)[C@H](Cc1ccccc1)NP(=O)(CCOCC(COCCP(=O)(N[C@@H](Cc1ccccc1)C(=O)OCC)N[C@@H](Cc1ccccc1)C(=O)OCC)Cn1cnc2c(=O)[nH]c(N)nc21)N[C@@H](Cc1ccccc1)C(=O)OCC | – | 6.9 | 5.1 | > 300 | Stable | – | –
11 | CCOC(=O)[C@H](Cc1ccccc1)NP(=O)(CCOCC(COCCP(=O)(N[C@@H](Cc1ccccc1)C(=O)OCC)N[C@@H](Cc1ccccc1)C(=O)OCC)n1c(Br)nc2c(=O)[nH]c(N)nc21)N[C@@H](Cc1ccccc1)C(=O)OCC | – | 7 | 4.4 | – | – | – | –
12 | CCOC(=O)[C@H](Cc1ccccc1)NP(=O)(CCOCC(COCCP(=O)(N[C@@H](Cc1ccccc1)C(=O)OCC)N[C@@H](Cc1ccccc1)C(=O)OCC)Cn1c(Br)nc2c(=O)[nH]c(N)nc21)N[C@@H](Cc1ccccc1)C(=O)OCC | – | 21.3 | 22.1 | 94 | – | – | –
13 | Nc1nc2c(ncn2C(COCCP(=O)(O)O)COCCP(=O)(O)O)c(=O)[nH]1 | 0.3 | – | – | – | – | 21 | Ki [15]: 0.2 µM
14 | O=c1[nH]cnc2c1nc(Br)n2C(COCCP(=O)(O)O)COCCP(=O)(O)O | – | – | – | – | – | – | inhibition (Plasmodium falciparum [17]): inactive; inhibition (Plasmodium vivax [18]): inactive; inhibition [19]: inactive
15 | CCOC(=O)[C@H](Cc1ccccc1)NP(=O)(CCOCC(COCCP(=O)(N[C@@H](Cc1ccccc1)C(=O)OCC)N[C@@H](Cc1ccccc1)C(=O)OCC)Cn1c(Br)nc2c(=O)[nH]cnc21)N[C@@H](Cc1ccccc1)C(=O)OCC | – | – | – | 43 | – | – | –
16 | CCOC(=O)[C@H](Cc1ccccc1)NP(=O)(CCOCC(COCCP(=O)(N[C@@H](Cc1ccccc1)C(=O)OCC)N[C@@H](Cc1ccccc1)C(=O)OCC)n1ccc2c(=O)[nH]cnc21)N[C@@H](Cc1ccccc1)C(=O)OCC | – | – | – | 130 | Stable | – | –
17 | CCOC(=O)[C@H](Cc1ccccc1)NP(=O)(CCOCC(COCCP(=O)(N[C@@H](Cc1ccccc1)C(=O)OCC)N[C@@H](Cc1ccccc1)C(=O)OCC)Cn1ccc2c(=O)[nH]c(N)nc21)N[C@@H](Cc1ccccc1)C(=O)OCC | – | 2.1 | 0.8 | 95 | Stable | – | –

Now from value to compound, other results behind:

Row | Ki [5] [µM] | SMILES | IC50 (Plasmodium falciparum [1]) [µM] | IC50 (Plasmodium falciparum [2]) [µM] | CC50 at 96 h [3] [µM] | Stability [4] | Ki [13] [µM] | further results
18 | 9.7 | O=c1[nH]cnc2c1nc(Br)n2CC(COCCP(=O)(O)O)COCCP(=O)(O)O | – | – | – | – | – | inhibition (Plasmodium vivax [8]): inactive; inhibition (Plasmodium falciparum [9]): inactive
19 | 5 | Nc1nc2c(ccn2C(COCCP(=O)(O)O)COCCP(=O)(O)O)c(=O)[nH]1 | – | – | – | – | 49 | Ki [15]: 6 µM
20 | 3 | O=c1[nH]cnc2c1ncn2C(COCCP(=O)(O)O)COCCP(=O)(O)O | – | – | – | – | 21 | Ki [15]: 0.7 µM
21 | 0.1 | Nc1nc2c(ncn2CC(COCCP(=O)(O)O)COCCP(=O)(O)O)c(=O)[nH]1 | – | – | – | – | 0.16 | –
22 | 4 | Nc1nc2c(nc(Br)n2CC(COCP(=O)(O)O)COCP(=O)(O)O)c(=O)[nH]1 | – | – | – | – | 89 | Ki [15]: 1 µM
23 | 19 | Nc1nc2c(nc(Br)n2C(COCCP(=O)(O)O)COCCP(=O)(O)O)c(=O)[nH]1 | – | – | – | – | 153 | Ki [15]: 4 µM
24 | 1 | Nc1nc2c(ccn2CC(COCCP(=O)(O)O)COCCP(=O)(O)O)c(=O)[nH]1 | – | – | – | – | 1.5 | –
25 | 0.25 | Nc1nc2c(nc(Br)n2CC(COCCP(=O)(O)O)COCCP(=O)(O)O)c(=O)[nH]1 | – | – | – | – | 1.6 | inhibition (Plasmodium falciparum [16]): inactive

Source: ChEMBL document CHEMBL4052668, “Synthesis and evaluation of symmetric acyclic nucleoside bisphosphonates as inhibitors of the Plasmodium falciparum, Plasmodium vivax and human 6-oxopurine phosphoribosyltransferases and the antimalarial activity of their prodrugs” (Bioorg Med Chem, 2017)
